Measured values taken from patent US20080188478A1, “Compounds Useful In Therapy” (Pfizer Inc., priority 2005, published 2008).

Experiments:
human V1A receptor = human V1A receptor (Homo sapiens, UniProt P37288); test: V1A filter binding assay ([3H]-AVP binding to CHO-hV1A membranes); details: screen 1.0, Ki by Cheng-Prusoff equation
Protocol: 1.0 V1A Filter Binding Assay
Receptor binding assays were performed on cellular membranes prepared from CHO cells stably expressing the human V1A receptor, (CHO-hV1A). The CHO-hV1A cell line was kindly provided under a licensing agreement by Marc Thibonnier, Dept. of Medicine, Case Western Reserve University School of Medicine, Cleveland, Ohio. CHO-hV1A cells were routinely maintained at 37° C. in humidified atmosphere with 5% CO2 in DMEM/Hams F12 nutrient mix supplemented with 10% fetal bovine serum, 2 mM L-glutamine, 15 mM HEPES and 400 μg/ml G418. For bulk production of cell pellets, adherent CHO-hV1A cells were grown to confluency of 90-100% in 850 cm^2 roller bottles containing a medium of DMEM/Hams F12 Nutrient Mix supplemented with 10% fetal bovine serum, 2 mM L-glutamine and 15 mM HEPES. Confluent CHO-hV1A cells were washed with phosphate-buffered saline (PBS), harvested into ice cold PBS and centrifuged at 1,000 rpm. Cell pellets were stored at −80° C. until use. When required, the cell pellets were thawed on ice and homogenised in membrane preparation buffer consisting of 50 mM Tris-HCl, pH 7.4, 5 mM MgCl2 and supplemented with a protease inhibitor cocktail, (Roche). The cell homogenate was centrifuged at 1000 rpm, 10 min, 4° C. and the supernatant was removed and stored on ice. The remaining pellet was homogenised and centrifuged as before. The supernatants were pooled and centrifuged at 25,000×g for 30 min at 4° C. The pellet was resuspended in freezing buffer consisting of 50 mM Tris-HCl, pH 7.4, 5 mM MgCl2 and 20% glycerol and stored in small aliquots at −80° C. until use. Protein concentration was determined using Bradford reagent and BSA as a standard.
Protein linearity, followed by saturation binding studies were performed on each new batch of membrane. A membrane concentration was chosen that gave specific binding on the linear portion of the curve. Saturation binding studies were then performed using various concentrations of [^3H]-arginine vasopressin, [^3H]-AVP (0.05 nM-100 nM) and the Kd and Bmax were determined. […] The plates were sealed and counted on a TopCount Microplate Scintillation Counter (Packard Instruments). Non-specific binding (NSB) was determined using 1 μM unlabelled d(CH2)5Tyr(Me)AVP ([β-mercapto-β,β-cyclopentamethylenepropionyl, 0-Me-Tyr^2, Arg^8]-vasopressin) (βMCPVP), (Sigma). The radioligand binding data was analysed using a four parameter logistic equation with the min forced to 0%. […] Specific binding was calculated by subtracting the mean NSB cpm from the mean Total cpm. For test compounds the amount of ligand bound to the receptor was expressed as % bound=(sample cpm−mean NSB cpm)/specific binding cpm×100. […]

human V1A receptor, sequence (P37288 whole entry): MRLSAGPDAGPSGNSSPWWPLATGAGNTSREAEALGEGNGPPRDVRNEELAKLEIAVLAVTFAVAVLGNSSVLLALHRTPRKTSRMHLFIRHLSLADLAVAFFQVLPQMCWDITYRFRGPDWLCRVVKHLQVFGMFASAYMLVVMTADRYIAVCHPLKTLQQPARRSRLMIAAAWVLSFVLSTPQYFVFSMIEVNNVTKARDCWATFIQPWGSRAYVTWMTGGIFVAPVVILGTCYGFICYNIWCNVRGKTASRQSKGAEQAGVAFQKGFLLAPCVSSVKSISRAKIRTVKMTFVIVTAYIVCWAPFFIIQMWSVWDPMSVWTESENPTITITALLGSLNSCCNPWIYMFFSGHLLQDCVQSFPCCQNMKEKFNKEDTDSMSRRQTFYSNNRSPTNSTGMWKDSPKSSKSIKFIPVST

Row | Structure (SMILES) | Ki (human V1A receptor) | melting point
1 | O=c1oc2cccnc2n1C1CCN(c2nnc(Cn3nccn3)n2-c2ccc(Cl)cc2)CC1 [Example 7, 3-{1-[4-(4-chlorophenyl)-5-(2H-1,2,3-triazol-2-ylmethyl)-4H-1,2,4-triazol-3-yl]piperidin-4-yl}[1,3]oxazolo[4,5-b]pyridin-2(3H)-one] | 1.1 nM | 
2 | FC(F)(F)c1nnc(N2CCN(c3nsc4ccccc34)CC2)n1-c1ccc(Cl)cc1 [Example 22, 3-{4-[4-(4-Chlorophenyl)-5-(trifluoromethyl)-4H-1,2,4-triazol-3-yl]piperazin-1-yl}-1,2-benzisothiazole] | 0.79 nM | 
3 | Cc1nnc(C2CCN(c3noc4cccnc34)CC2)n1-c1ccc(Cl)cc1 [Example 29, 3-{4-[4-(4-Chlorophenyl)-5-methyl-4H-1,2,4-triazol-3-yl]piperidin-1-yl}isoxazolo[4,5-b]pyridine] | 1.04 nM | 

Second part, the compound after the results:

Row | Ki (human V1A receptor) | melting point | Structure (SMILES)
4 |  | 210 to 212 °C | Cc1nnc(N2CCC(N3c4ccccc4N(C)S3(=O)=O)CC2)n1-c1ccc(Cl)cc1 [Example 18, 1-{1-[4-(4-Chlorophenyl)-5-methyl-4H-1,2,4-triazol-3-yl]piperidin-4-yl}-3-methyl-1,3-dihydro-2,1,3-benzothiadiazole 2,2-dioxide]
5 | 0.49 nM |  | Cc1nnc(N2CCN(c3nsc4ccccc34)CC2)n1-c1ccc(Cl)cc1 [Example 20, 3-{4-[4-(4-Chlorophenyl)-5-methyl-4H-1,2,4-triazol-3-yl]piperazin-1-yl}-1,2-benzisothiazole]
